Square brackets hold non-standard residues; d marks the D form. Peptide text beside a SMILES is read from it. Aib = CC(C)(N)C(=O)O
Assays:
human GLP-2 receptor = biological target: T1, human GLP-2 receptor (Homo sapiens, UniProt O95838, D470N); experiment: GLP-2 receptor potency assay (cAMP AlphaScreen, HEK293 cells stably expressing GLP-2R); format: cell-based; settings: cAMP response, HEK293 cells expressing human GLP-2R
T1 sequence (O95838 1-553 D470N): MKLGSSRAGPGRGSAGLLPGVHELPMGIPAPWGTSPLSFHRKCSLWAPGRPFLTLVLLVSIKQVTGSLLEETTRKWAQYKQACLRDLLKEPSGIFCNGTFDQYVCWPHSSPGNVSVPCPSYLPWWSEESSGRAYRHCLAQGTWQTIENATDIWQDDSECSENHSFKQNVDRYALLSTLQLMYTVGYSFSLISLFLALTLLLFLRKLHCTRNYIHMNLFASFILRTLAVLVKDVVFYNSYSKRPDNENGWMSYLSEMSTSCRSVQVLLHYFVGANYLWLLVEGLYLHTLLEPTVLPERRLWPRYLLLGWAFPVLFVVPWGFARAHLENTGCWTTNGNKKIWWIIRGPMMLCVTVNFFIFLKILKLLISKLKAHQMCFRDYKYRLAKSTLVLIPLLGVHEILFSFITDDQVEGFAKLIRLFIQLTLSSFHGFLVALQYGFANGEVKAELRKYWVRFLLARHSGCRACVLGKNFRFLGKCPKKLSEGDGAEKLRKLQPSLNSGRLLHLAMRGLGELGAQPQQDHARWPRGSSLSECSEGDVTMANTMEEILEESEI
Description: (§1) One useful in vitro assay for measuring GLP-1 and GLP-2 receptor activity is quantitation of cAMP, i.e. 3′-5′-cyclic adenosine monophosphate, which is a second messenger essential in many biological processes, and one of the most ubiquitous mechanisms for regulating cellular functions. […] Test compounds eliciting an increase in the intracellular level of cAMP can be tested in these assays, and the response normalized relative to a positive and negative control (vehicle) to calculate the EC50 and maximal response from the concentration response curve using the 4-parameter logistic (4PL) nonlinear model for curve fitting.
The hGLP2-R was purchased from MRC-geneservice, Babraham, Cambridge as an Image clone: 5363415 (11924-I17). For subcloning into a mammalian expression vector, primers for subcloning were obtained from DNA-Technology, Risskov, Denmark. The 5′ and 3′ primers used for the PCR reaction include terminal restriction sites for cloning and the context of the 5′ primer is modified to a Kozak consensus without changing the sequence of the product encoded by the ORF. A standard PCR reaction was run using Image clone 5363415 (11924-117) as a template with the above mentioned primers and Polymerase Herculase II Fusion in a total vol. of 50 μl. The generated PCR product was purified using GFX PCR and Gel band purification kit, digested with restriction enzymes and cloned into the mammalian expression vector using Rapid DNA Ligation Kit. Ligation reaction was transformed to XL10 Gold Ultracompetent cells and colonies were picked for DNA production using Endofree Plasmid maxi kit. Subsequent sequence analysis was conducted by MWG Eurofins, Germany.
HEK293 cells were transfected using the Lipofectamine PLUS transfection method. The day before transfection, HEK293 cells were seeded in two T75 flasks at a density of 2×10^6 cells/T75 flask in cell culturing medium without antibiotics. On the day of transfection, cells were washed with 1×DPBS and medium was replaced with Optimem to a volume of 5 mL/T75 flask before addition of Lipofectamine-plasmid complexes were added gently and drop wise to the cells in T75 flasks and replaced with growth medium after 3 hours and again to growth medium supplemented with 500 μg/mL G418 after 24 hours. Following 4 weeks in G418 selection, clones were picked and tested in a functional GLP-2 receptor potency assay as described below.
(§2) The cAMP AlphaScreen assay from Perkin Elmer was used to quantitate the cAMP response to activation of the GLP1 and GLP2 receptor, respectively. […] Data from test compounds eliciting an increase in the intracellular level of cAMP were normalized relative to the positive and negative control (vehicle) to calculate the EC50 and maximal response from the concentration response curve.

human GLP-1 receptor = biological target: T2, human GLP-1 receptor (Homo sapiens, UniProt P43220); experiment: GLP-1 receptor potency assay (cAMP AlphaScreen, HEK293 cells stably expressing GLP-1R); format: cell-based; settings: cAMP response, HEK293 cells expressing human GLP-1R; read-out: EC50 GLP-1
T2 construct: expressed in transfected cells
T2 sequence (P43220 24-463): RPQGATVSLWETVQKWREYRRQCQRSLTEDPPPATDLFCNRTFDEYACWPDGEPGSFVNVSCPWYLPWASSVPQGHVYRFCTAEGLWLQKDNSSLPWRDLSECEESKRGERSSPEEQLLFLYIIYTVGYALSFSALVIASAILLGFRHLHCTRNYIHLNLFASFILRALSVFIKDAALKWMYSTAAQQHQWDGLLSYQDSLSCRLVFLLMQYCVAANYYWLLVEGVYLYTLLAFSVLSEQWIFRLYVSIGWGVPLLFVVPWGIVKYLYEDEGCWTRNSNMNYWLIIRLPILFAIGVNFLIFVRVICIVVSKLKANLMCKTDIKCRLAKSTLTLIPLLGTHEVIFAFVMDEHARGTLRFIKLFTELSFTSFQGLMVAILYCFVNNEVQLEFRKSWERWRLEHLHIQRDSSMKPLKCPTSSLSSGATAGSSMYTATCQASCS
Description: as §1
The cDNA encoding the human glucagon-like peptide 1 receptor (GLP-1R) (primary accession number P43220) was cloned from the cDNA BC112126 (MGC:138331/IMAGE:8327594). The DNA encoding the GLP-1-R was amplified by PCR using primers encoding terminal restriction sites for subcloning. The 5′-end primers additionally encoded a near Kozak consensus sequence to ensure efficient translation. […] The PCR products encoding the GLP-1-R were subcloned into a mammalian expression vector containing a neomycin (G418) resistance marker. The mammalian expression vectors encoding the GLP-1-R were transfected into HEK293 cells by a standard calcium phosphate transfection method. 48 hours post-transfection, cells were seeded for limited dilution cloning and selected with 1 mg/ml G418 in the culture medium. Following 3 weeks in G418 selection clones were picked and tested in a functional GLP-1 receptor potency assay as described below.
as §2

| SMILES | EC50 (human GLP-2 receptor) [pM] | EC50 (human GLP-1 receptor) [pM] |
| --- | --- | --- |
| CC[C@H](C)[C@H](NC(=O)[C@H](Cc1ccccc1)NC(=O)[C@H](CC(=O)O)NC(=O)[C@H](CCCNC(=N)N)NC(=O)[C@H](C)NC(=O)[C@H](C)NC(=O)[C@H](CCC(N)=O)NC(=O)[C@H](CCC(=O)O)NC(=O)[C@H](CC(=O)O)NC(=O)[C@H](CC(C)C)NC(=O)[C@@H](NC(=O)[C@@H](NC(=O)[C@H](C)NC(=O)[C@H](CC(C)C)NC(=O)[C@H](CCC(=O)O)NC(=O)[C@H](CO)NC(=O)[C@@H](NC(=O)[C@H](Cc1ccccc1)NC(=O)[C@@H](NC(=O)CNC(=O)[C@H](CCC(=O)O)NC(=O)C(C)(C)NC(=O)[C@@H](N)Cc1c[nH]cn1)[C@@H](C)O)[C@@H](C)O)[C@@H](C)O)[C@@H](C)CC)C(=O)N[C@@H](C)C(=O)N[C@@H](Cc1c[nH]c2ccccc12)C(=O)N[C@@H](CC(C)C)C(=O)N[C@@H](Cc1ccc(O)cc1)C(=O)N[C@@H](C)C(=O)N[C@@H](Cc1c[nH]cn1)C(=O)N[C@@H](CCCCN)C(=O)N[C@H](C(=O)N[C@H](C(=O)N[C@@H](CC(=O)O)C(=O)O)[C@@H](C)O)[C@@H](C)CC [Compound 14] (H-H[Aib]EGTFTSELATILDEQAARDFIAWLYAHKITD-OH) | 49 | 21 |
| CC[C@H](C)[C@H](NC(=O)[C@H](Cc1ccccc1)NC(=O)[C@H](CC(=O)O)NC(=O)[C@H](CCCNC(=N)N)NC(=O)[C@H](C)NC(=O)[C@H](C)NC(=O)[C@H](CCC(N)=O)NC(=O)[C@H](CCC(=O)O)NC(=O)[C@H](CC(=O)O)NC(=O)[C@H](CC(C)C)NC(=O)[C@@H](NC(=O)[C@@H](NC(=O)[C@H](C)NC(=O)[C@H](CC(C)C)NC(=O)[C@H](CCC(=O)O)NC(=O)[C@H](CO)NC(=O)[C@@H](NC(=O)[C@H](Cc1ccccc1)NC(=O)[C@@H](NC(=O)CNC(=O)[C@H](CCC(=O)O)NC(=O)C(C)(C)NC(=O)[C@@H](N)Cc1c[nH]cn1)[C@@H](C)O)[C@@H](C)O)[C@@H](C)O)[C@@H](C)CC)C(=O)N[C@@H](C)C(=O)N[C@@H](Cc1c[nH]c2ccccc12)C(=O)N[C@@H](CC(C)C)C(=O)N[C@H](C(=O)N[C@@H](CCC(N)=O)C(=O)N[C@@H](Cc1c[nH]cn1)C(=O)N[C@@H](CCCCN)C(=O)N[C@H](C(=O)N[C@H](C(=O)N[C@@H](CC(=O)O)C(=O)O)[C@@H](C)O)[C@@H](C)CC)[C@@H](C)CC [Compound 15] (H-H[Aib]EGTFTSELATILDEQAARDFIAWLIQHKITD-OH) | 38 | 5 |
| CC[C@H](C)[C@H](NC(=O)[C@H](Cc1ccccc1)NC(=O)[C@H](CC(=O)O)NC(=O)[C@H](CCCNC(=N)N)NC(=O)[C@H](C)NC(=O)[C@H](C)NC(=O)[C@H](CCC(N)=O)NC(=O)[C@H](CCC(=O)O)NC(=O)[C@H](CC(=O)O)NC(=O)[C@H](CC(C)C)NC(=O)[C@@H](NC(=O)[C@@H](NC(=O)[C@H](C)NC(=O)[C@H](CC(C)C)NC(=O)[C@H](CCC(=O)O)NC(=O)[C@H](CO)NC(=O)[C@@H](NC(=O)[C@H](Cc1ccccc1)NC(=O)[C@@H](NC(=O)CNC(=O)[C@H](CCC(=O)O)NC(=O)C(C)(C)NC(=O)[C@@H](N)Cc1c[nH]cn1)[C@@H](C)O)[C@@H](C)O)[C@@H](C)O)[C@@H](C)CC)C(=O)N[C@@H](C)C(=O)N[C@@H](Cc1c[nH]c2ccccc12)C(=O)N[C@@H](CC(C)C)C(=O)N[C@H](C(=O)N[C@@H](CCCCN)C(=O)N[C@@H](Cc1c[nH]cn1)C(=O)N[C@@H](CCCCN)C(=O)N[C@H](C(=O)N[C@H](C(=O)N[C@@H](CC(=O)O)C(=O)O)[C@@H](C)O)[C@@H](C)CC)[C@@H](C)CC [Compound 16] (H-H[Aib]EGTFTSELATILDEQAARDFIAWLIKHKITD-OH) | 26 | 6 |
| CC[C@H](C)[C@H](NC(=O)[C@H](Cc1ccccc1)NC(=O)[C@H](CC(=O)O)NC(=O)[C@H](CCCNC(=N)N)NC(=O)[C@H](C)NC(=O)[C@H](C)NC(=O)[C@H](CCC(N)=O)NC(=O)[C@H](CCC(=O)O)NC(=O)[C@H](CC(=O)O)NC(=O)[C@H](CC(C)C)NC(=O)[C@@H](NC(=O)[C@@H](NC(=O)[C@H](C)NC(=O)[C@H](CC(C)C)NC(=O)[C@H](CCC(=O)O)NC(=O)[C@H](CO)NC(=O)[C@@H](NC(=O)[C@H](Cc1ccccc1)NC(=O)[C@@H](NC(=O)CNC(=O)[C@H](CCC(=O)O)NC(=O)C(C)(C)NC(=O)[C@@H](N)Cc1c[nH]cn1)[C@@H](C)O)[C@@H](C)O)[C@@H](C)O)[C@@H](C)CC)C(=O)N[C@@H](C)C(=O)N[C@@H](Cc1c[nH]c2ccccc12)C(=O)N[C@@H](CC(C)C)C(=O)N[C@H](C(=O)N[C@@H](CCCNC(=N)N)C(=O)N[C@@H](Cc1c[nH]cn1)C(=O)N[C@@H](CCCCN)C(=O)N[C@H](C(=O)N[C@H](C(=O)N[C@@H](CC(=O)O)C(=O)O)[C@@H](C)O)[C@@H](C)CC)[C@@H](C)CC [Compound 17] (H-H[Aib]EGTFTSELATILDEQAARDFIAWLIRHKITD-OH) | 66 | 6 |
| CC[C@H](C)[C@H](NC(=O)[C@H](Cc1ccccc1)NC(=O)[C@H](CC(=O)O)NC(=O)[C@H](CCCNC(=N)N)NC(=O)[C@H](C)NC(=O)[C@H](C)NC(=O)[C@H](CCC(N)=O)NC(=O)[C@H](CCC(=O)O)NC(=O)[C@H](CC(=O)O)NC(=O)[C@H](CC(C)C)NC(=O)[C@@H](NC(=O)[C@@H](NC(=O)[C@H](C)NC(=O)[C@H](CC(C)C)NC(=O)[C@H](CCC(=O)O)NC(=O)[C@H](CO)NC(=O)[C@@H](NC(=O)[C@H](Cc1ccccc1)NC(=O)[C@@H](NC(=O)CNC(=O)[C@H](CCC(=O)O)NC(=O)C(C)(C)NC(=O)[C@@H](N)Cc1c[nH]cn1)[C@@H](C)O)[C@@H](C)O)[C@@H](C)O)[C@@H](C)CC)C(=O)N[C@@H](C)C(=O)N[C@@H](Cc1c[nH]c2ccccc12)C(=O)N[C@@H](CC(C)C)C(=O)N[C@H](C(=O)N[C@@H](CO)C(=O)N[C@@H](Cc1c[nH]cn1)C(=O)N[C@@H](CCCCN)C(=O)N[C@H](C(=O)N[C@H](C(=O)N[C@@H](CC(=O)O)C(=O)O)[C@@H](C)O)[C@@H](C)CC)[C@@H](C)CC [Compound 18] (H-H[Aib]EGTFTSELATILDEQAARDFIAWLISHKITD-OH) | 54 | 6 |
| CC[C@H](C)[C@H](NC(=O)[C@H](CC(C)C)NC(=O)[C@H](Cc1c[nH]c2ccccc12)NC(=O)[C@H](C)NC(=O)[C@@H](NC(=O)[C@H](Cc1ccccc1)NC(=O)[C@H](CC(=O)O)NC(=O)[C@H](CCCNC(=N)N)NC(=O)[C@H](C)NC(=O)[C@H](C)NC(=O)[C@H](CCC(N)=O)NC(=O)[C@H](CCC(=O)O)NC(=O)[C@H](CC(=O)O)NC(=O)[C@H](CC(C)C)NC(=O)[C@@H](NC(=O)[C@@H](NC(=O)[C@H](C)NC(=O)[C@H](CC(C)C)NC(=O)[C@H](CCC(=O)O)NC(=O)[C@H](CO)NC(=O)[C@@H](NC(=O)[C@H](Cc1ccccc1)NC(=O)[C@@H](NC(=O)CNC(=O)[C@H](CCC(=O)O)NC(=O)C(C)(C)NC(=O)[C@@H](N)Cc1c[nH]cn1)[C@@H](C)O)[C@@H](C)O)[C@@H](C)O)[C@@H](C)CC)[C@@H](C)CC)C(=O)N[C@@H](C)C(=O)N[C@@H](CCC(N)=O)C(=O)N[C@@H](CCCCN)C(=O)N[C@H](C(=O)N[C@H](C(=O)N[C@@H](CC(=O)O)C(=O)O)[C@@H](C)O)[C@@H](C)CC [Compound 19] (H-H[Aib]EGTFTSELATILDEQAARDFIAWLIAQKITD-OH) | 150 | 5 |
